Data published in PMC10828444, “Selective inhibition of overactive warmth-sensitive Ca^2+-permeable TRPV3 channels by antispasmodic agent flopropione for alleviation of skin inflammation” (The Journal of Biological Chemistry, 2023).
Substitutions are numbered along the chain they refer to.

Assays:
Assay type in all cases: cell-based
hTRPV1 = biological target: T1, hTRPV1 (Homo sapiens, UniProt Q8NER1); test: Whole-cell patch-clamp of TRPV1 currents evoked by capsaicin in HEK293 cells; settings: flopropione 100 μM, 1 μM capsaicin
T1 construct: expressed in transfected cells; host or cells: HEK293
T1 sequence (Q8NER1 whole entry): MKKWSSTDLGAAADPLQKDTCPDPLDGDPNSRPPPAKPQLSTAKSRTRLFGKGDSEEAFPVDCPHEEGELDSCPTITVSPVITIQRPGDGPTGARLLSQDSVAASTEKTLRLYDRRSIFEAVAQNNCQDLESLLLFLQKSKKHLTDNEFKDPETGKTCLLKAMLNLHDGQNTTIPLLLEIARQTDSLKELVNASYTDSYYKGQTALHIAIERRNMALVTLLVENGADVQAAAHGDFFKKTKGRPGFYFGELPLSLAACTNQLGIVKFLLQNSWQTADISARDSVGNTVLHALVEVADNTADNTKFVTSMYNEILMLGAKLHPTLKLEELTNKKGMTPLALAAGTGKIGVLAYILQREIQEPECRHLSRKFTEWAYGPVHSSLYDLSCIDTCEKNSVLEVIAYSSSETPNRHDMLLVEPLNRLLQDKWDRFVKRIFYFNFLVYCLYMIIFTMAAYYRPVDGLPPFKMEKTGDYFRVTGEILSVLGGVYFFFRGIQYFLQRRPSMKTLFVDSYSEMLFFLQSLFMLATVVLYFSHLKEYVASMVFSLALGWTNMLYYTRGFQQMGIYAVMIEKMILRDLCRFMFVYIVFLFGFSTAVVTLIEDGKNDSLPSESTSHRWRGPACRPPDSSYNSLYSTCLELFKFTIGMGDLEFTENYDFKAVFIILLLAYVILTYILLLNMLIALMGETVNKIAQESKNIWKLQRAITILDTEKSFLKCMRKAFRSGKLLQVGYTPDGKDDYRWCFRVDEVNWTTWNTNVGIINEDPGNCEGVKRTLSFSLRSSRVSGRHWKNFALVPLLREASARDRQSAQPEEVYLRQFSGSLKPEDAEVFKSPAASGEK
Description: (§1) HEK293 cells were cultured in Dulbecco’s modified Eagle’s medium (DMEM, Gibco) containing 4.5 g/L D-glucose supplemented with 10% fetal bovine serum based at 37 °C with 5% CO2. For whole-cell patch-clamp recordings, cells were grown in glass coverslips for 24 h before transient transfections with 3000 ng cDNAs of hTRPV3 (gene accession number BC104866.1), hTRPV1 (accession number NM_080704.3), mTRPV2 (accession number NM_011706.2), hTRPV4 (accession number NM_021625.5), hTRPA1 (accession number NM_007332.3) and hTRPM8 (accession number NM_024080.5) into HEK293 cells grown in a 35-mm cell culture dish using Lipofectamine 2000 (Invitrogen). Cells were used 18 ∼ 24 h after transfection. All WT or mutant hTRPV3 plasmids were validated by DNA sequencing.
(§2) Whole-cell patch clamp recordings of wild-type and mutants were carried out at room temperature using the HEKA EPC10 amplifier powered by PatchMaster software (HEKA) or MultiClamp 700B amplifier driven by Clampex 11.0.3 software. The borosilicate glass pipettes were pulled and fire-polished to 3∼6 MΩ using a DMZ universal electrode puller (Zeitz-Instruments, GmbH). Pipette solution and bath solution both contained (in mM): 130 NaCl, three HEPES, and 0.2 EDTA (pH = 7.4). Cell membrane potential was held at 0 mV, currents were recorded at a voltage ramp from −100 to +100 mV for 500-ms and analyzed at ±80 mV.

TRPV3-E501A mutant = biological target: T2, TRPV3-E501A mutant (Homo sapiens, UniProt Q8NET8, E501A); test: Whole-cell and single-channel recordings of TRPV3-E501A mutant; settings: 100 μM flopropione whole-cell (50 μM 2-APB); 50 μM single-channel (30 μM 2-APB)
T2 construct: expressed in transfected cells; host or cells: HEK293
T2 sequence (Q8NET8 1-790 E501A): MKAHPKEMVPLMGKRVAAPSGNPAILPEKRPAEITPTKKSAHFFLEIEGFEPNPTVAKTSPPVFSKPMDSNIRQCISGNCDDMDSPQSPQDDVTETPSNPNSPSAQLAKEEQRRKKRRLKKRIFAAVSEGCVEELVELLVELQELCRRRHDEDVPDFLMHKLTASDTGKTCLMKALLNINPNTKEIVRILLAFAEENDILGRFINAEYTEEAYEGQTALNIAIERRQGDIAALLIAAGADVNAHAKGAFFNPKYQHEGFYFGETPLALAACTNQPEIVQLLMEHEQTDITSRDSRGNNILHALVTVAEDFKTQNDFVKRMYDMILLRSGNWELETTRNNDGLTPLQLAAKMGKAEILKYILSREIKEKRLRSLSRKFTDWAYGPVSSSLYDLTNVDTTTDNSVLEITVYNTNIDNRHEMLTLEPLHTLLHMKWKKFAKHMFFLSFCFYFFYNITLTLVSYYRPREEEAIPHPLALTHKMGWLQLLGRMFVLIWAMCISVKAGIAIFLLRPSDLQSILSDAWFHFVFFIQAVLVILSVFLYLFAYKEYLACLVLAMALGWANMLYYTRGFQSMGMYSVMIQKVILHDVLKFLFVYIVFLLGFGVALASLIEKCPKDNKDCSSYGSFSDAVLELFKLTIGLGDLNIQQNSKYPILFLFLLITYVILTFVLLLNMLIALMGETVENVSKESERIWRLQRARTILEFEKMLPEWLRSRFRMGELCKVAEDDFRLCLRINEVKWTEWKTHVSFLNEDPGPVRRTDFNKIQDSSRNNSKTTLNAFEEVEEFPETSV
Description: as §1
as §2, with “mV. […]” for “mV.”

hTRPV3 R509A mutant = biological target: T3, hTRPV3 R509A mutant (Homo sapiens, UniProt Q8NET8, R509A); test: Whole-cell recordings of TRPV3 R509A mutant; settings: 100 μM flopropione, 2-APB
T3 construct: expressed in transfected cells; host or cells: HEK293
T3 sequence (Q8NET8 1-790 R509A): T2 sequence (Q8NET8 1-790 E501A) with A501E, R509A
Description: as §1, §2

Question: Which results are given for `CCC(=O)c1c(O)cc(O)cc1O` [flopropione]?
Answer: effect on TRPV1 currents (hTRPV1): no effect; effect of E501A mutation on inhibition by flopropione (TRPV3-E501A mutant): significantly reduced TRPV3 inhibition; sensitivity of R509A mutant to flopropione inhibition (hTRPV3 R509A mutant): maintained the sensitivity to flopropione inhibition
